Patent publication EP0045334A1, “Propranolol antigen conjugates and antibodies and method of using them” (SYVA COMPANY, priority 1980, dated 1982)

Legend:
[1] = system: Antibodies prepared from BSA conjugate according to Example 6; assay: Cross-reactivity in homogeneous enzyme immunoassay for propranolol (G6PDH conjugate, change in OD at 340nm); type: binding; conditions: 100ng/ml propranolol standard
Procedure: (§1) Antibodies were prepared employing the conjugates of Examples 4 and 6 in accordance with known procedures. The bleeds were harvested and the antibodies isolated according to known techniques.
(§2) The following is the assay procedure employed for the determination of the presence of propranolol.
(§3) In carrying out the propranolol assay, a number of reagent solutions are prepared:
(§4) • 0.055M Tris-HCl • 0.05% Sodium Azide • 0.005% Thimerosal • pH8.1 at room temperature • Assay Buffer • Basic Buffer • 0.5% NaCl • 0.01% Triton X-100 • pH8.1 at room temperature • Substrate/Antibody Diluent • Basic Buffer • 1.0% RSA (Rabbit Serum Albumin) • 0.04M NAD • 0.066M glucose-6-phosphate • pH5.0 at room temperature • Enzyme Diluent • Basic Buffer • 1.0% RSA • 0.9% NaCl • pH 8.1 at room temperature • Antibody-Substrate Reagent A
(§5) Antibody Substrate is used to dilute gamma globulin isolated as above so that ca 70% of the G6PDH conjugate activity is inhibited in the assay solution.
(§6) The enzyme conjugate (e.g., Example 7) is diluted with enzyme diluent to attain the desired maximum rate. This is measured by aspirating into a spectrometer and taking the change in readings at 340nm over a 30 second period after a 15 second delay.
(§7) In carrying out the assay, the assay solution is prepared by combining the following: 50µl of the sample to be assayed, 50 µl of Reagent A, and 50 µl of Reagent B with 750 µl of assay buffer. The mixture is aspirated into a spectrometer and the A OD read at 340nm. The.concentration of propranolol in the sample is read from a standard curve prepared by using standardized solutions and taking readings.
(§8) The drugs listed below were used in preliminary testing for cross-reactivity with propranolol using the assay procedure described above: 4-hydroxypropranolol (4POH), N-desisopropyl-propranolol (DIPP), propranolol glycol (PG), naphthoxylactic acid (NLA), and naphthoxyacetic acid (NAA). All are metabolites of propranolol itself. […] The remainder show cross reactivity as below.

[2] = system: Antibodies prepared from BgG conjugate according to Example 4; assay: as above; type: binding; conditions: Lot 2153; 100ng/ml propranolol standard
Procedure: as §1, §2, §3, §4, §5, §6, §7, §8

## CC(C)NCC(O)COc1ccc(O)c2ccccc12 (stereo not drawn) [Example 4POH, 4-hydroxypropranolol]
[1]; Lot 2215
  CROSS-REACTIVITY, expressed as the concentration necessary to elevate the signal of a 100ng/ml standard solution by 30%: >1000 ng/mL
[1]; Lot 2216
  CROSS-REACTIVITY, expressed as the concentration necessary to elevate the signal of a 100ng/ml standard solution by 30%: >1000 ng/mL
[2]
  CROSS-REACTIVITY, expressed as the concentration necessary to elevate the signal of a 100ng/ml standard solution by 30%: 190 ng/mL

## OCC(O)COc1cccc2ccccc12 (stereo not drawn) [PG, propranolol glycol]
[1]; Lot 2215
  CROSS-REACTIVITY, expressed as the concentration necessary to elevate the signal of a 100ng/ml standard solution by 30%: 230 ng/mL
[1]; Lot 2216
  CROSS-REACTIVITY, expressed as the concentration necessary to elevate the signal of a 100ng/ml standard solution by 30%: 400 ng/mL
[2]
  CROSS-REACTIVITY, expressed as the concentration necessary to elevate the signal of a 100ng/ml standard solution by 30%: 84 ng/mL

## NCC(O)COc1cccc2ccccc12 (stereo not drawn) [DIPP, N-desisopropyl-propranolol]
[1]; Lot 2215
  CROSS-REACTIVITY, expressed as the concentration necessary to elevate the signal of a 100ng/ml standard solution by 30%: 22 ng/mL
[1]; Lot 2216
  CROSS-REACTIVITY, expressed as the concentration necessary to elevate the signal of a 100ng/ml standard solution by 30%: 200 ng/mL
[2]
  CROSS-REACTIVITY, expressed as the concentration necessary to elevate the signal of a 100ng/ml standard solution by 30%: 8 ng/mL
